Test system: HCT-116 human colon cancer cells
Test: Colony formation inhibition test on HCT-116 human colon cancer cells
Type: cell-based
Settings: for Number of cell clones on HCT-116, mean / inhibition at 0.05 µM / inhibition at 0.15 µM / inhibition at 0.45 µM: 72 h treatment, then 7-10 days; for inhibition at 0.05 µM / inhibition at 0.15 µM / inhibition at 0.45 µM / IC50: Homo sapiens; for inhibition at 0.05 µM / inhibition at 0.15 µM / inhibition at 0.45 µM: HCT-116, read-out: % inhibition (colony formation inhibition rate); for IC50: HCT-116 cells, dose-response 50, 150, 450 nM, read-out: IC50 value (colony formation inhibition, FIG. 7)
Experimental: 1. The colony formation inhibition test was used to evaluate the effect of four exemplary candidate compounds (D1, D2, D3, and D4) having concentrations of 50 nM, 150 nM and 450 nM on inhibiting cell proliferation of HCT-116 human colon cancer cells line.
2. Experiment material includes cell lines. HCT-116 human colon cancer cell line was purchased from the Chinese Academy of Sciences Shanghai Cell Resource Center, Cat # TCHu 99.
3. Reagent preparation includes HCT-116 human colon cancer cell culture medium, e.g., Dulbecco's Modified Eagle's medium (DMEM) medium with 10% fetal bovine serum (FBS). Compound solutions were prepared by dissolving and diluting the above synthesized compounds in dimethyl sulfoxide (DMSO) to a final concentration of about 100 μM.
Cell staining solution was prepared including 0.5% crystal violet solution prepared using absolute or anhydrous ethanol, and stored in dark. Before staining, the solution was mixed with phosphate buffered saline (PBS) buffer solution by volume ratio of 1:4 as the cell staining solution.
4. Cell culture: cells in logarithmic growth phase were collected, counted, and resuspended in complete culture medium. The cell concentration was adjusted to an appropriate concentration, 6-well culture plates were seeded, with about 300 cells and 1.8 mL of culture medium in each well. Cells were incubated for about 5 hours in an incubator at about 37° C. and about 100% relative humidity and under 5% CO2.
5. Cell colony formation inhibition test and data processing were performed including, for example, (a)-(i) as follows.
(a) Cells in logarithmic growth phase were collected and counted. The cells were re-suspended in culture medium containing 5% FBS, and counted. Six-well plates were seeded according to a rate of 300 cells per well. Cells were incubated for about 5 hours in an incubator at about 37° C. with 100% relative humidity and under 5% CO2.
(b) The compounds were diluted with culture medium (containing 5% FBS) to be concentrations of about 0.5 μM, 1.5 μM and 4.5 μM. Adding the compounds to cells in 200 μL per well, the final concentrations of the compounds were about 50 nM, 150 nM and 450 nM. Each concentration point was repeatedly tested for three times.
(c) Cells were incubated for about 72 hours in an incubator at 37° C. with 100% relative humidity and under 5% CO2. (d) The culture medium from the plates (the culture medium containing the compound(s) was aspirated. The plates were rinsed with Hank's Balance Salt Solution (HBSS) twice, and replaced with fresh culture medium (DMEM medium with 15% FBS).
(e) Cells were incubated for about 7-10 days in an incubator at about 37° C. and 100% relative humidity and under 5% CO2, until the formation of visible cloned plaques. (f) The culture medium was aspirated from the plates. The plates were rinsed twice with PBS solution. (g) The residual PBS was absorbed and removed, and ethanol was added at 1 mL per plate, fixing for 30 minutes.
(h) Ethanol was absorbed and removed, and cell staining solution was added, stained for 3 minutes. (i) The staining solution was aspirated. After rinsing three times with PBS, the cells were counted.
Data processing was performed. Cloning formation efficiency=[As/Ac]×100%; and colony formation inhibition rate=1−cloning formation efficiency, where As denotes number of cell colonies in compound-treated group (cells+compounds to be tested), and Ac denotes number of cell colonies in negative control (without treating with compound) (cells+1% DMSO).

SMILES | Number of cell clones on HCT-116, mean (50 nM) | Number of cell clones on HCT-116, mean (150 nM) | Number of cell clones on HCT-116, mean (450 nM) | inhibition at 0.05 µM (50 nM) | inhibition at 0.15 µM (150 nM) | inhibition at 0.45 µM (450 nM) | IC50
CCCCOC(=O)Nc1ccn(C2OC(COC(=O)CCCC(=O)OC[C@H]3O[C@@H](n4ccc(NC(=O)OCCCC)nc4=O)C(F)(F)[C@@H]3OC(=O)OCCCC)C(OC(=O)OCCCC)C2(F)F)c(=O)n1 (stereo in doubt) [Compound D1, 1,5-di-[4-N-(n-butyloxycarbonyl)-3′-O-(n-butoxycarbonyl)-2′-deoxy-2′,2′-difluoro-cytidine]glutarate] | 242 | 188 | 52 | 3.58% | 25.1% | 79.3% | ~245 nM
CCCCOC(=O)Nc1ccn([C@H]2O[C@@H](COC(=O)CCC(=O)OC[C@H]3O[C@@H](n4ccc(NC(=O)OCCCC)nc4=O)C(F)(F)[C@@H]3O)[C@H](O)C2(F)F)c(=O)n1 (stereo in doubt) [Compound D2, 1,5-di-[4-N-(n-butoxycarbonyl)-2′-deoxy-2′,2′-difluoro-cytidine]glutarate] | 243 | 191 | 36 | 4.7% | 25.1% | 85.9% | ~227 nM
CCCCOC(=O)Nc1ccn(C2OC(COC(=O)CCC(=O)OC[C@H]3O[C@@H](n4ccc(NC(=O)OCc5ccccc5)nc4=O)C(F)(F)[C@@H]3O)C(O)C2(F)F)c(=O)n1 (stereo in doubt) [Compound D4, 1-O-(4-N-(Benzyloxycarbonyl)-gemcitabine)-4-O-(4-N-(n-Butoxycarbonyl)-gemcitabine)-succinate] | 235 | 75 | 11 | 8.2% | 70.7% | 95.7% | ~112 nM
O=C(CCCC(=O)OC[C@H]1O[C@@H](n2ccc(NC(=O)OCc3ccccc3)nc2=O)C(F)(F)[C@@H]1O)OC[C@H]1O[C@@H](n2ccc(NC(=O)OCc3ccccc3)nc2=O)C(F)(F)[C@@H]1O [Compound D3, 1,5-di-[4-N-(benzyloxycarbonyl)-2′-deoxy-2′,2′-difluoro-cytidine]glutarate] | 237 | 20 | 4 | 1.66% | 91.7% | 98.3% | ~99.8 nM

Reference: US10351586B2, “Cytidine derivative dimers and applications thereof” (CHANGZHOU FANGYUAN PHARMACEUTICAL CO., LTD, priority 2014, dated 2019)
